Each compound was assayed against T1, Human complement C1s enzyme (Homo sapiens, UniProt P09871) (assay: Human C1s enzyme assay). Details: human complement C1s enzyme 1.16 nM, substrate Z-L-Lys-SBzl, A405; read-out: IC50 (Stars).
T1 construct: purified from human serum, Complement Technology, Inc; purchased Complement Technology, Inc; host or cells: human serum (plasma-derived native protein)
T1 sequence (P09871 438-688 limits assumed): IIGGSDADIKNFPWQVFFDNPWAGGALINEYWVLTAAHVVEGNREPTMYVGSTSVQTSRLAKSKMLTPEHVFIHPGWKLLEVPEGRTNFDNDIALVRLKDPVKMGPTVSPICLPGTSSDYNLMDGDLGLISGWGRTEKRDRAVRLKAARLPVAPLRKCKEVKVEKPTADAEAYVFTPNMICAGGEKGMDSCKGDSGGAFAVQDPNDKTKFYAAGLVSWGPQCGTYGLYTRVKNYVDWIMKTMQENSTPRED
T1 sequence (P09871 16-437 partner limits assumed): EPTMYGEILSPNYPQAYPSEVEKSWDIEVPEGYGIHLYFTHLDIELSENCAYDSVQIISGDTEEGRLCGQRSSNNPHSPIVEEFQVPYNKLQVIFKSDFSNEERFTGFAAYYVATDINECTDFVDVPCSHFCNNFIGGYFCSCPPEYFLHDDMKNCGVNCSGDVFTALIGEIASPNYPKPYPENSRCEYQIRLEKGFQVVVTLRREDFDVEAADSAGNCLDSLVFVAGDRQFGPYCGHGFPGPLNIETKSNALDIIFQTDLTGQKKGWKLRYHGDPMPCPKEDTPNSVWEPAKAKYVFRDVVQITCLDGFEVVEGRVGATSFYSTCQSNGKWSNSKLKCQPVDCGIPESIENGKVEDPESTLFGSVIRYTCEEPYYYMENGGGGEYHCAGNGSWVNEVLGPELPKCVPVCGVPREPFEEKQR
Type: biochemical
Method in brief: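 Serum-purified human C1s (1.16 nM final) preincubated 5 min at room temperature with compound in 50 mM Tris, 1 M NaCl, pH 7.5. Z-L-Lys-SBzl and DTNB added at 100 μM each; A405 recorded every 30 s. IC50 from nonlinear regression of reaction rates versus compound concentration.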

Structure (SMILES)	IC50 [nM]
C[C@@H](Nc1cnc(N2CCN(C(=O)C3CC3)CC2)n(CC(=O)NCc2cc3cnccc3[nH]2)c1=O)c1ccc2oc3ccccc3c2c1 [Compound 468, (R)-N-((1H-pyrrolo[3,2-c]pyridin-2-yl)methyl)-2-(2-(4-(cyclopropanecarbonyl)piper-azin-1-yl)-5-((1-(dibenzo[b,d]furan-2-yl)ethyl)amino)-6-oxopyrimidin-1(6H)-yl)acet-amide]	100 to 1000
COC[C@H]1CCCN(c2ncc(N[C@H](C)c3ccc4oc5ccccc5c4c3)c(=O)n2CC(=O)NCc2cc3cnccc3[nH]2)C1 [Compound 467, N-((1H-pyrrolo[3,2-c]pyridin-2-yl)methyl)-2-(5-(((R)-1-(dibenzo[b,d]furan-2-yl)ethyl)-amino)-2-((S)-3-(methoxy-methyl)piperidin-1-yl)-6-oxo-pyrimidin-1(6H)-yl)acetamide]	> 1000
O=C(Cn1c(-c2ccccc2)ncc(NC(=O)c2ncc(-c3ccccc3)o2)c1=O)NCc1cc2cnccc2[nH]1 [Compound 171, N-(1-(2-(((1H-pyrrolo[3,2-c]pyridine-2-yl)methyl)amino)-2-oxoethyl)-6-oxo-2-phenyl-1,6-dihydropyrimidin-5-yl)-5-phenyloxazole-2-carboxamide]	< 100
C[C@@H](Nc1cnc(-c2ccccc2)n(CC(=O)NCc2cc3cnccc3[nH]2)c1=O)c1ccc(-c2ccccc2F)cc1 [Compound 307, (R)-N-((1H-pyrrolo[3,2-c]pyridin-2-yl)methyl)-2-(5-((1-(2′-fluoro-[1,1′-biphenyl]-4-yl)ethyl)amino)-6-oxo-2-phen-ylpyrimidin-1(6H)-yl)acet-amide]	< 100
O=C(Cn1c(-c2ccccc2)ncc(NCc2ccc3oc4ccccc4c3c2)c1=O)NCc1cc2c(s1)CNCC2 [Compound 143, 2-(5-((dibenzo[b,d]furan-2-yl-methyl)amino)-6-oxo-2-phen-ylpyrimidin-1(6H)-yl)-N-((4,5,6,7-tetrahydrothieno [2,3-c]pyridin-2-yl)methyl)-acetamide]	< 100
O=C(Cc1cc(NCCCc2ccccc2)cnc1-c1ccccc1)NCc1cc2cnccc2[nH]1 [Compound 207, N-((1H-pyrrolo[3,2-c]pyridine-2-yl)methyl)-2-(2-phenyl-5-((3-phenylpropyl)amino)146yridine-3-yl)acetamide]	> 1000
O=C(Cn1c(-c2ccccc2)ncc(NCc2ccc(-c3ccccc3F)cc2)c1=O)NCc1cc2cnccc2[nH]1 [Compound 250, N-((1H-pyrrolo[3,2-c]pyridin-2-yl)methyl)-2-(5-(((2′-fluoro-[1,1′-biphenyl]-4-yl)methyl)amino)-6-oxo-2-phenylpyrimidin-1(6H)-yl)acetamide]	< 100
O=C(Cn1c(-c2ccccc2)ncc(NCCCc2ccc(C3CC3)cc2)c1=O)NCc1cc2cnccc2[nH]1 [Compound 77, N-((1H-pyrrolo[3,2-c]pyridin-2-yl)methyl)-2-(5-((3-(4-cyclo-propylphenyl)propyl)amino)-6-oxo-2-phenylpyrimidin-1(6H)-yl)acetamide]	< 100
O=C(Cn1c(-c2ccc(OC3CCOCC3)cc2)ncc(NCc2ccc3oc4ccccc4c3c2)c1=O)NCc1cc2cnccc2[nH]1 [Compound 280, N-((1H-pyrrolo[3,2-c]pyridin-2-yl)methyl)-2-(5-((dibenzo [b,d]furan-2-ylmethyl)amino)-6-oxo-2-(4-((tetrahydro-2H-pyran-4-yl)oxy)phenyl)pyrimi-din-1(6H)-yl)acetamide]	< 100
O=C(Cn1c(-c2ccccc2)ncc(NC(=O)c2ccc3c(c2)oc2ccccc23)c1=O)NCc1cc2cnccc2[nH]1 [Compound 203, N-(1-(2-(((1H-pyrrolo[3,2-c]pyridin-2-yl)methyl)amino)-2-oxoethyl)-6-oxo-2-phenyl-1,6-dihydropyrimidin-5-yl)dibenzo [b,d]furan-3-carboxamide]	< 100
Cc1ccc(F)c(-c2ncc(N[C@H](C)c3ccc4oc5ccccc5c4c3)c(=O)n2CC(=O)NCc2cc3cnccc3[nH]2)c1 [Compound 438, (R)-N-((1H-pyrrolo[3,2-c]pyridin-2-yl)methyl)-2-(5-((1-(dibenzo[b,d]furan-2-yl)ethyl)-amino)-2-(2-fluoro-5-methyl-phenyl)-6-oxopyrimidin-1(6H)-yl)acetamide]	< 100

Continued, values first:

IC50 [nM]	Structure (SMILES)
< 100	O=C(Cn1c(N2CCOCC2)ncc(NC(=O)c2coc(-c3ccccc3)n2)c1=O)NCc1cc2cnccc2[nH]1 [Compound 413, N-(1-(2-(((1H-pyrrolo[3,2-c]pyridin-2-yl)methyl)amino)-2-oxoethyl)-2-morpholino-6-oxo-1,6-dihydropyrimidin-5-yl)-2-phenyloxazole-4-carbox-amide]
< 100	O=C(Cn1c(-c2ccccc2)ncc(NCc2nnc(-c3ccccc3)s2)c1=O)NCc1cc2cnccc2[nH]1 [Compound 454, N-((1H-pyrrolo[3,2-c]pyridin-2-yl)methyl)-2-(6-oxo-2-phen-yl-5-(((5-phenyl-1,3,4-thiadia-zol-2-yl)methyl)amino)pyr-imidin-1(6H)-yl)acetamide]
< 100	O=C(Cn1c(-c2ccc(OC(F)(F)F)cc2)ncc(NCc2ccc3oc4ccccc4c3c2)c1=O)NCc1cc2cnccc2[nH]1 [Compound 136, N-((1H-pyrrolo[3,2-c]pyridin-2-yl)methyl)-2-(5-((dibenzo [b,d]furan-2-ylmethyl)amino)-6-oxo-2-(4-(trifluoromethoxy)-phenyl)pyrimidin-1(6H)-yl)-acetamide]
< 100	O=C(Cn1c(-c2ccccc2)ncc(NCc2ccc(-c3ccccc3)cc2)c1=O)NCc1cc2cnccc2[nH]1 [Compound 19, N-((1H-pyrrolo[3,2-c]pyridin-2-yl)methyl)-2-(5-(([1,1′-biphenyl]-4-ylmethyl)amino)-6-oxo-2-phenylpyrimidin-1(6H)-yl)acetamide]
< 100	O=C(Cn1c(N2CCCCC2)cnc(NCc2cc(-c3ccccc3)ns2)c1=O)NCc1cc2cnccc2[nH]1 [Compound 477, N-((1H-pyrrolo[3,2-c]pyridin-2-yl)methyl)-2-(2-oxo-3-(((3-phenylisothiazol-5-yl)methyl)-amino)-6-(piperidin-1-yl)pyr-azin-1(2H)-yl)acetamide]
100 to 1000	CC(C)c1ncc(N[C@H](C)c2ccc3oc4ccccc4c3c2)c(=O)n1CC(=O)NCc1cc2cnccc2[nH]1 [Compound 341, (R)—N-((1H-pyrrolo[3,2-c]pyridine-2-yl)methyl)-2-(5-((1-(dibenzo[b,d]furan-2-yl)ethyl)amino)-2-isopropyl-6-oxopyrimidin-1(6H)-yl)acetamide]
< 100	C[C@@H](Nc1ncc(C2=CCCCC2)n(CC(=O)NCc2cc3cnccc3[nH]2)c1=O)c1ccc2oc3ccccc3c2c1 [Compound 427, (R)-N-((1H-pyrrolo[3,2-c]pyridin-2-yl)methyl)-2-(6-(cyclohex-1-en-1-yl)-3-((1-(dibenzo[b,d]furan-2-yl)ethyl)-amino)-2-oxopyrazin-1(2H)-yl)acetamide]
< 100	O=C(Cn1c(-c2ccccc2)ncc(NCc2ccc3sc4ccccc4c3c2)c1=O)NCc1cc2cnccc2[nH]1 [Compound 259, N-((1H-pyrrolo[3,2-c]pyridin-2-yl)methyl)-2-(5-((dibenzo [b,d]thiophen-2-ylmethyl)-amino)-6-oxo-2-phenylpyrimi-din-1(6H)-yl)acetamide]
< 100	O=C(Cn1c(-c2ccccc2)ncc(NCCCc2ccc(S(F)(F)(F)(F)F)cc2)c1=O)NCc1cc2cnccc2[nH]1 [Compound 104, N-((1H-pyrrolo[3,2-c]pyridin-2-yl)methyl)-2-(6-oxo-5-((3-(4-(pentafluoro-lambda6-sulfaneyl)phenyl)propyl)-amino)-2-phenylpyrimidin-1(6H)-yl)acetamide]
< 100	C[C@@H](NC(=O)Cn1c(-c2ccccc2)ncc(NCCCc2ccccc2)c1=O)c1cc2cnccc2[nH]1 [Compound 10, (R)-N-(1-(1H-pyrrolo[3,2-c]pyridin-2-yl)ethyl)-2-(6-oxo-2-phenyl-5-((3-phenylpropyl)-amino)pyrimidin-1(6H)-yl)-acetamide]
> 1000	C[C@H](NC(=O)Cn1c(-c2ccccc2)ncc(N[C@H](C)c2ccc3oc4ccccc4c3c2)c1=O)c1cc2cnccc2[nH]1 [Compound 239, N-((S)-1-(1H-pyrrolo[3,2-c]pyridin-2-yl)ethyl)-2-(5-(((R)-1-(dibenzo[b,d]furan-2-yl)-ethyl)amino)-6-oxo-2-phenyl-pyrimidin-1(6H)-yl)acetamide]
100 to 1000	C[C@@H](NC(=O)Cn1c(-c2ccccc2)cnc(NCCCc2ccccc2)c1=O)c1cc2cnccc2[nH]1 [Compound 12, (R)-N-(1-(1H-pyrrolo[3,2-c]pyridin-2-yl)ethyl)-2-(2-oxo-6-phenyl-3-((3-phenylpropyl)-amino)pyrazin-1(2H)-yl)-acetamide]
< 100	O=C(Cn1c(-c2ccccc2)ncc(NCc2cc(-c3ccccc3)ns2)c1=O)NCc1cc2cnccc2[nH]1 [Compound 458, N-((1H-pyrrolo[3,2-c]pyridin-2-yl)methyl)-2-(6-oxo-2-phen-yl-5-(((3-phenylisothiazol-5-yl)methyl)amino)pyrimidin-1(6H)-yl)acetamide]
